# Results reported in patent US8304422B2, “Compositions and methods for inhibition of the JAK pathway” (Rigel Pharmaceuticals, Inc., priority 2007, dated 2012).
# System: BaF3 V617F cells; UKE-1
# Experiment: Proliferation Assay (Cell Titer-Glo; Example 7)
# Format: cell-based
# Settings: proliferation 72 hours, inhibit JAK2 activity, cell line (BaF3 V617F or UKE-1) not stated
# Method in brief: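 BaF3 V617F cells (RPMI, 10% FBS) and UKE-1 cells (Iscove's DMEM, 10% FBS, 10% equine serum, 1 uM hydrocortisone) were exposed to 3-fold serially diluted compound in duplicate for 72 hours at 37 °C. Viable cell number quantified by Cell Titer-Glo luminescence; IC50 reported.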
row,IC50 [nM],Compound
1,892,"Cc1cc(Nc2ncc(C)c(Nc3ccc(CNS(=O)(=O)C4CC4)cc3)n2)ccc1N1C[C@@H]2C[C@H]1CN2C [II-184, N4-[4-(N-Cyclopropylsulfonylamino)methylphenyl]-5-methyl-N2-[3-methyl-4-[(1S,4S)-5-methyl-2,5-diazabicyclo[2.2.1]hept-2-yl]phenyl]-2,4-pyrimidinediamine]"
2,1510,"COc1c(C)cc(Nc2ncc(C(F)(F)F)c(Nc3ccc(CNS(=O)(=O)C4CC4)cc3)n2)cc1C [II-126, N4-[4-(N-Cyclopropylsulfonylamino)methylphenyl]-N2-(3,5-dimethyl-4-methoxyphenyl)-5-trifluoromethyl-2,4-pyrimidinediamine]"
3,208,"CCNS(=O)(=O)NCc1ccc(Nc2nc(Nc3cc(C)c(OC)c(OC)c3)ncc2C)cc1 [II-117, N2-(3,4-Dimethoxy-5-methylphenyl)-N4-[(4-(ethylamino)sulfonylamino)methylphenyl]-5-methyl-2,4-pyrimidinediamine]"
4,158,"COc1cc(Nc2ncc(Cl)c(Nc3ccc(CNS(=O)(=O)NC4CC4)cc3)n2)cc(C)c1OC [II-158, 5-Chloro-N4-[4-((N-cyclopropylamino)sulfonylamino)methylphenyl]-N2-(3,4-dimethoxy-5-methylphenyl)-2,4-pyrimidinediamine]"
5,558,"COc1cc(Nc2ncc(Cl)c(Nc3ccc(CNS(=O)(=O)N(C)C)cc3)n2)cc(Cl)c1OC [II-92, 5-Chloro-N2-(3-chloro-4,5-dimethoxyphenyl)-N4-[(4-(dimethylamino)sulfonylamino)methylphenyl]-2,4-pyrimidinediamine]"
6,2690,"CCc1cnc(Nc2cc(OC)c(OC)c(OC)c2)nc1Nc1ccc(CNS(=O)(=O)C2CC2)cc1 [II-85, N4-[4-(N-Cyclopropylsulfonylamino)methylphenyl]-5-ethyl-N2-(3-,4,5-trimethoxylphenyl)-2,4-pyrimidinediamine]"
7,151,"CCNS(=O)(=O)NCc1ccc(Nc2nc(Nc3cc(C)c(OC)c(OC)c3)ncc2Cl)cc1 [II-109, 5-Chloro-4-[(4-(ethylamino)sulfonylamino)methylphenyl]-N2-(3,4-dimethoxy-5-methylphenyl)-2,4-pyrimidinediamine]"
8,103,"COc1c(C)cc(Nc2ncc(C)c(Nc3ccc(CNS(=O)(=O)N(C)C)cc3)n2)cc1C [II-99, 4-[(4-(Dimethylamino)sulfonylamino)methylphenyl]-N2-(3,5-dimethyl-4-methoxyphenyl)-5-methyl-2,4-pyrimidinediamine]"
9,1170,"COc1c(Cl)cc(Nc2ncc(C)c(Nc3ccc(CNS(=O)(=O)N(C)C)cc3)n2)cc1Cl [II-102, 5-methyl-N2-[3,5-dichloro-4-methoxyphenyl]-N4-[(4-(dimethylamino)sulfonylamino)methylphenyl]-2,4-pyrimidinediamine]"
10,180,"COc1cc(Nc2ncc(F)c(Nc3ccc(CNS(=O)(=O)C4CC4)cc3)n2)cc(C)c1OC [II-195, 5-Fluoro-N4-[4-(N-cyclopropylsulfonylamino)methylphenyl]-N2-[3,4-dimethoxy-5-methylphenyl]-2,4-pyrimidinediamine]"
11,316,"CCN1CCN(c2ccc(Nc3ncc(C)c(Nc4ccc(CNS(=O)(=O)N(C)C)cc4)n3)cc2)CC1 [II-107, N4-[(4-(Dimethylamino)sulfonylamino)methylphenyl]-5-methyl-N2-[4-(4-ethyl-1-piperazinyl)phenyl]-2,4-pyrimidinediamine]"
12,1390,"CCc1cnc(Nc2cc(C)c(OC)c(Cl)c2)nc1Nc1ccc(CNS(=O)(=O)C2CC2)cc1 [II-83, N2-(3-Chloro-4-methoxy-5-methylphenyl)-N4-[4-(N-cyclopropylsulfonylamino)methylphenyl]-5-ethyl-2,4-pyrimidinediamine]"
13,431,"CCNS(=O)(=O)NCc1ccc(Nc2nc(Nc3cc(OC)c(OC)c(OC)c3)ncc2Cl)cc1 [II-112, 5-Chloro-N4-[(4-(ethylamino)sulfonylamino)methylphenyl]-N2-(3,4,5-trimethoxyphenyl)-2,4-pyrimidinediamine]"
14,797,"CCc1cnc(Nc2cc(C)c(OC)c(OC)c2)nc1Nc1ccc(CNS(=O)(=O)C2CC2)cc1 [II-82, N4-[4-(N-Cyclopropylsulfonylamino)methylphenyl]-N2-(3,4-dimethoxy-5-methylphenyl)-5-ethyl-2,4-pyrimidinediamine]"
15,229,"CCNS(=O)(=O)NCc1ccc(Nc2nc(Nc3cc(C)c(OC)c(Cl)c3)ncc2C)cc1 [II-118, N2-(3-Chloro-4-methoxy-5-methylphenyl)-N4-[(4-(ethylamino)sulfonylamino)methylphenyl]-5-methyl-2,4-pyrimidinediamine]"
16,179,"COc1cc(Nc2ncc(C)c(Nc3ccc(CNS(=O)(=O)N(C)C)cc3)n2)cc(C)c1OC [II-100, 4-[(4-(Dimethylamino)sulfonylamino)methylphenyl]-N2-(3,4-dimethoxy-5-methylphenyl)-5-methyl-2,4-pyrimidinediamine]"

# Further lines, the compound ahead of its results:
row,Compound,IC50 [nM]
1,Cc1cnc(Nc2ccc(S(=O)(=O)C(F)(F)F)cc2)nc1Nc1ccc(CCNS(=O)(=O)C2CC2)cc1 [II-59],3140
2,"Cc1cnc(Nc2cc(C)c(C)c(C)c2)nc1Nc1ccc2c(c1)S(=O)(=O)NCC2 [VII-8, 5-Methyl-N4-[3,4-dihydro-1,1-dioxide-2H-1,2-benzothiazin-7-yl]-N2-[3,4,5-trimethylphenyl]-2,4-pyrimidinediamine]",1610
3,"Cc1cnc(Nc2ccc(C3CCN(C)CC3)cc2)nc1Nc1ccc2c(c1)C(NS(=O)(=O)C1CC1)CC2 (racemic) [V-5, (+/−)-N4-[1-(Cyclopropylsulfonylamino)indan-6-yl]-5-methyl-N2-[4-(1-methyl-4-piperidinyl)pheny]-2,4-pyrimidinediamine]",999
4,"CCNS(=O)(=O)NCc1cccc(Nc2nc(Nc3ccc(N4CCN(C)CC4)c(C)c3)ncc2F)c1 [II-139, N4-[3-((Ethylamino)sulfonylamino)methylphenyl]-5-fluoro-N2-[3-methyl-4-(4-methyl-1-piperazinyl)phenyl]-2,4-pyrimidinediamine]",4330
5,"O=S(=O)(NCc1ccc(Nc2nc(Nc3cc(C4CC4)n[nH]3)ncc2Cl)cc1)C1CC1 [VIII-12, 5-Chloro-N4-[4-(N-cyclopropylsulfonylamino)methylphenyl]-N2-[5-cyclopropylpyrazol-3-yl)-2,4-pyrimidinediamine]",879
6,"CCS(=O)(=O)N1CCc2c(cccc2Nc2nc(Nc3cc(C)c(OC)c(C)c3)ncc2Cl)C1 [VI-4, 5-Chloro-N2-(3,5-dimethyl-4-methoxyphenyl)N4-[1,2,3,4-tetrahydro-2-(ethylsulfonyl)-5-isoquinolinyl]-2,4-pyrimidinediamine]",1210
7,"5-Chloro-N4-[3-(N-tert-butylsulfonyl)phenyl]-N2-[3,4-trimethyl-4-methoxyphenyl]-2,4-pyrimidinediamine [I-16]",17700
8,"CCc1cnc(Nc2ccc(N3CCN(CC)CC3)cc2)nc1Nc1ccc(CNS(=O)(=O)C2CC2)cc1 [II-89, N4-[4-(N-Cyclopropylsulfonylamino)methylphenyl]-5-ethyl-N2-[4-(4-ethyl-1-piperazinyl)phenyl]-2,4-pyrimidinediamine]",674
9,"CCNS(=O)(=O)NCc1cccc(Nc2nc(Nc3ccc(N4CCN(C)CC4)c(C)c3)ncc2C)c1 [II-136, N4-[3-((Ethylamino)sulfonylamino)methylphenyl]-5-methyl-N2-[3-methyl-4-(4-methyl-1-piperazinyl)phenyl]-2,4-pyrimidinediamine]",2140
10,"O=S(=O)(NCc1cccc(Nc2nc(Nc3ccc(-c4cccnc4)cc3)ncc2Cl)c1)C1CC1 [II-194, 5-Chloro-N4-[3-(N-cyclopropylsulfonylamino)methylphenyl]-N2-[4-(3-pyridinyl)phenyl]-2,4-pyrimidinediamine]",1340
11,Cc1cnc(Nc2cc(C)c(OCCN3CCOCC3)c(C)c2)nc1Nc1cccc(S(=O)(=O)NC(C)(C)C)c1 [I-20],189
12,"Cc1cc(CNS(=O)(=O)NC2CC2)ccc1Nc1nc(Nc2ccc(N3CCN(C)CC3)cc2)ncc1Cl [II-180, 5-Chloro-N4-[2-methyl-4-((N-cyclopropylamino)sulfonylamino)methylphenyl]-N2-[4-(4-methyl-1-piperazinyl)phenyl]-2,4-pyrimidinediamine]",633
13,"Cc1cnc(Nc2ccc(N3CCN(C)CC3)cc2)nc1Nc1cccc(S(=O)(=O)N(C)C)c1 [I-14, N4-[(3-(1,1-Dimethylamino)sulfonyl)phenyl]-5-methyl-N2-[4-(4-methyl-1-piperazinyl)phenyl]-2,4-pyrimidinediamine]",225
14,"O=S(=O)(NCc1ccc(Nc2nc(Nc3ccc(N4CCN(C5CC6CCC5C6)CC4)c(F)c3)ncc2Cl)cc1)C1CC1 (stereo not shown) [II-79, N-(4-(2-(4-(4-(bicyclo[2.2.1]heptan-2-yl)piperazin-1-yl)-3-fluorophenylamino)-5-chloropyrimidin-4-ylamino)benzyl)cyclopropanesulfonamide]",3160
15,Cc1cnc(Nc2ccc(N3CCN(C)CC3)cc2C(F)(F)F)nc1Nc1ccc(CCNS(=O)(=O)C2CC2)cc1 [II-70],1390
16,"N2-[3,4-Dimethyl-4-(2-(4-morpholinyl)ethoxy)phenyl]-N4-[4-((N-cyclopropylamino)sulfonylamino)methylphenyl]-5-methyl-2,4-pyrimidinediamine [II-174]",127
17,"CN1CCN(c2ccc(Nc3ncc(Cl)c(Nc4ccc(CCNS(=O)(=O)C5CC5)cc4)n3)c(F)c2)CC1 [II-56, 5-Chloro-N4[4-(N-cyclopropylsulfonylamino)ethylphenyl]-N2-[4-(4-methylpiperazino)-2-fluorophenyl]-2,4-pyrimidinediamine]",639
18,"Cc1cc(CNS(=O)(=O)C2CC2)ccc1Nc1nc(Nc2ccc(N3CCN(C)CC3)c(C)c2)ncc1Cl [II-153, 5-Chloro-N4-[2-methyl-4-(N-cyclopropylsulfonylamino)methylphenyl]-N2-[3-methyl-4-(4-methyl-1-piperazinyl)phenyl]-2,4-pyrimidinediamine]",3330
